Test results published in patent publication US20060030616A1, “Anhydride modified cantharidin analogues useful in the treatment of cancer” (priority 1998, published 2006).

Legend:
[1] = tested on: nine cancer cell lines; assay: MTT cytotoxicity assay, 72 h, ranges over cell line panel; format: cell-based; conditions: nine cell lines, read-out: IC50 range across all cell lines tested
Description: (§1) Cells in a subconfluent phase are transferred to 96-well microtitre plates. L1210 cells are plated at a density of 1000 cells/well in 100 μl medium, while all other cell lines are plated at a density of 2000-25000 cells/well. The cells are left for 24 h prior to treatment to ensure exponential growth has been achieved, 24 h after plating (day 0), 100 μl of phosphatase inhibitor is added to each well, control wells received 100 μl of medium only. Drug exposure time is 72 h (day 3). The effect of phosphatase inhibition is tested in triplicate over a concentration range of […]−1×10^−8 M. Growth inhibitory effects are evaluated using the MTT assay and absorbance read at […]. The IC50 is the drug concentration at which cell growth is 50% inhibited based on the difference of optical density on day 0 and day 3 of drug exposure. Cytotoxicity is evaluated using a spectrophotometric assay which determines the percentage of cell growth following exposure of the cells to various concentrations of the phosphatase inhibitors for a period of 72 hours. The subsequent dose response curve is used to calculate IC50 values (the drug concentration at which cell growth is 50% inhibited).
(§2) Anti-cancer screening of the protein phosphatase inhibitors is assessed using the MTT assay. This assay determines cell viability by the ability of mitochondrial dehydrogenase to produce formazan crystals from 3-(4,5-dimethylthiazol-2-yl)-2,5-diphenyltetrazolium bromide. The viable cell number/well is directly proportional to the production of formazan, which following solubilization, can be measured spectrophotometrically (540 nm). This technique is also used by the National Cancer Institute to screen for new anticancer agents.
(§3) As described herein a number of cantharidin analogues have been synthesised and tested for their anticancer activity in nine cancer cell lines using the MTT assay after 72 h exposure. These new analogues are shown in FIG. 2 and have been designated MK-1 through to MK-9.

[2] = tested on: HT29 cells; assay: Checkpoint abrogation after 6 Gy radiation, flow cytometry; format: cell-based, human; conditions: 12 h after drug
Description: (§4) The cells are fixed in 70% ethanol and stored at −20° C. until analysis is performed (1-2 weeks). After fixing, the cells are pelleted and incubated in PBS containing propidium iodide ([…]) and RNase A (200 mg/ml) for at least 30 min at room temperature. The samples (2×10^4 events) are analysed using a Becton Dickson FACScan, fluorescence is collected in fluorescence detector 2 (FL2), filter 575/30 nm band pass. Cell cycle distribution is assessed using Cell Quest software (Becton Dickson).
(§5) The ability of the protein phosphatase inhibitors to abrogate the G1 or G2 checkpoint of the cell cycle may be determined by cell cycle analysis using flow cytometry. Briefly, asynchronous cell cultures are harvested 18 h after 6 Gy irradiation and/or 12 h incubation with the protein phosphatase inhibitor. Depending upon the p53 status of the cell line, radiation treatment alone will induce arrest in either G1 and/or G2 phase of the cell cycle.
(§6) If the protein phosphatase inhibitor abrogates the G2 checkpoint then the cells will not arrest in the G2 phase of the cell cycle and the cells will continue through the cell cycle and accumulate in the G1 phase of the cell cycle only. Similarily if the protein phosphatase inhibitors abrogates the G1 checkpoint then the cells will not arrest in the G1 phase of the cell cycle and accumulate in the G2 phase of the cell cycle only. Cell cycle analysis using propidium iodide labelling of DNA has been used extensively in our laboratory to assess the effect of specific anticancer agents that induce S-phase cell cycle arrest and apoptotic cell death (Sakoff, Ackland and Stewart, 1998). Experiments were performed on a Becton Dickinson FACScan and using Cell Quest software.
(§7) The cells were treated with 6 Gy of radiation and then treated with cantharidin 6 h later. The ability to abrogate cell cycle arrest was assessed is 12 h after the addition of the drugs.

[3] = tested on: HL60 cells; assay: as above; format: cell-based, human; conditions: 12 h after drug
Description: as §4, §5, §6, §7

[4] = tested on: HCT116 cells; assay: as above; format: cell-based, human; conditions: 12 h after drug
Description: as §4, §5, §6, §7

[5] = tested on: L1210 cells; assay: MTT cytotoxicity assay, 72 h; format: cell-based, murine; conditions: L1210, p53 wt; read-out: IC50 (mean ± SE) after 72 h continuous exposure
Description: as §1, §2, §3

[6] = tested on: L1210 cells; assay: Checkpoint abrogation after 6 Gy radiation, flow cytometry; format: cell-based, murine; conditions: 12 h after drug
Description: as §4, §5, §6, §7

For `O=C1OC(=O)C2C3C=CC(O3)C12` (stereo not shown) [MK-2], the IC50 [1] was 157 to 248 µM, the “Cell Cycle Distribution, G1” value ([2]; HT29, 5 μM, 18 h after 6Gy) was 31.8 percentage of total and the “Cell Cycle Distribution, G2 + M” value ([2]; HT29, 5 μM, 18 h after 6Gy) was 41.3 percentage of total. The “Cell Cycle Distribution, S” value ([2]; HT29, 5 μM, 18 h after 6Gy) was 8.7 percentage of total, the “Cell Cycle Distribution, sub G” value ([2]; HT29, 5 μM, 18 h after 6Gy) was 17.3 percentage of total and the “Cell Cycle Distribution, G1” value ([2]; HT29, 50 μM, 18 h after 6Gy) was 35.4 percentage of total. For the same molecule, the “Cell Cycle Distribution, G2 + M” value ([2]; HT29, 50 μM, 18 h after 6Gy) was 44.7 percentage of total, the “Cell Cycle Distribution, S” value ([2]; HT29, 50 μM, 18 h after 6Gy) was 8.8 percentage of total and the “Cell Cycle Distribution, sub G” value ([2]; HT29, 50 μM, 18 h after 6Gy) was 10.3 percentage of total. For the same molecule, the “Cell Cycle Distribution, G1” value ([2]; HT29, 100 μM, 18 h after 6Gy) was 40.6 percentage of total, the “Cell Cycle Distribution, G2 + M” value ([2]; HT29, 100 μM, 18 h after 6Gy) was 45.9 percentage of total and the “Cell Cycle Distribution, S” value ([2]; HT29, 100 μM, 18 h after 6Gy) was 9.0 percentage of total. For the same molecule, the “Cell Cycle Distribution, sub G” value ([2]; HT29, 100 μM, 18 h after 6Gy) was 3.5 percentage of total, the “Cell Cycle Distribution, G1” value ([2]; HT29, 250 μM, 18 h after 6Gy) was 24.9 percentage of total and the “Cell Cycle Distribution, G2 + M” value ([2]; HT29, 250 μM, 18 h after 6Gy) was 59.4 percentage of total. The “Cell Cycle Distribution, S” value ([2]; HT29, 250 μM, 18 h after 6Gy) was 12.3 percentage of total, the “Cell Cycle Distribution, sub G” value ([2]; HT29, 250 μM, 18 h after 6Gy) was 2.7 percentage of total and the “Cell Cycle Distribution, G1” value ([2]; HT29, 500 μM, 18 h after 6Gy) was 24.1 percentage of total. The “Cell Cycle Distribution, G2 + M” value ([2]; HT29, 500 μM, 18 h after 6Gy) was 45.2 percentage of total, the “Cell Cycle Distribution, S” value ([2]; HT29, 500 μM, 18 h after 6Gy) was 20.4 percentage of total and the “Cell Cycle Distribution, sub G” value ([2]; HT29, 500 μM, 18 h after 6Gy) was 8.8 percentage of total. The Checkpoint remark ([2]; HT29, 500 μM, 18 h after 6Gy) was “G1 abrogation”, the “Checkpoint abrogation” value ([2]; HT29, 6 Gy) was “abrogated radiation induced G1 arrest” and the “Cell Cycle Distribution, G1” value ([3]; HL60, 50 μM, 18 h after 6Gy) was 6.1 percentage of total. The “Cell Cycle Distribution, G2 + M” value ([3]; HL60, 50 μM, 18 h after 6Gy) was 85.5 percentage of total, the “Cell Cycle Distribution, S” value ([3]; HL60, 50 μM, 18 h after 6Gy) was 2.8 percentage of total and the “Cell Cycle Distribution, sub G” value ([3]; HL60, 50 μM, 18 h after 6Gy) was 5.9 percentage of total. For the same molecule, the “Cell Cycle Distribution, G1” value ([3]; HL60, 100 μM, 18 h after 6Gy) was 6.1 percentage of total, the “Cell Cycle Distribution, G2 + M” value ([3]; HL60, 100 μM, 18 h after 6Gy) was 85.4 percentage of total and the “Cell Cycle Distribution, S” value ([3]; HL60, 100 μM, 18 h after 6Gy) was 3.3 percentage of total. For the same molecule, the “Cell Cycle Distribution, sub G” value ([3]; HL60, 100 μM, 18 h after 6Gy) was 5.5 percentage of total, the “Cell Cycle Distribution, G1” value ([3]; HL60, 250 μM, 18 h after 6Gy) was 5.4 percentage of total and the “Cell Cycle Distribution, G2 + M” value ([3]; HL60, 250 μM, 18 h after 6Gy) was 83.9 percentage of total. For the same molecule, the “Cell Cycle Distribution, S” value ([3]; HL60, 250 μM, 18 h after 6Gy) was 2.8 percentage of total, the “Cell Cycle Distribution, sub G” value ([3]; HL60, 250 μM, 18 h after 6Gy) was 8.1 percentage of total and the “Cell Cycle Distribution, G1” value ([3]; HL60, 500 μM, 18 h after 6Gy) was 4.4 percentage of total. For the same molecule, the “Cell Cycle Distribution, G2 + M” value ([3]; HL60, 500 μM, 18 h after 6Gy) was 80.0 percentage of total, the “Cell Cycle Distribution, S” value ([3]; HL60, 500 μM, 18 h after 6Gy) was 4.1 percentage of total and the “Cell Cycle Distribution, sub G” value ([3]; HL60, 500 μM, 18 h after 6Gy) was 11.8 percentage of total. The Checkpoint remark ([3]; HL60, 500 μM, 18 h after 6Gy) was “Cell Death”, the “Checkpoint abrogation” value ([3]; HL60, 6 Gy) was “abrogated radiation induced G1 arrest” and the “Cell Cycle Distribution, G1” value ([4]; HCT116, 5 μM, 18 h after 6Gy) was 30.8 percentage of total. For the same molecule, the “Cell Cycle Distribution, G2 + M” value ([4]; HCT116, 5 μM, 18 h after 6Gy) was 57.2 percentage of total, the “Cell Cycle Distribution, S” value ([4]; HCT116, 5 μM, 18 h after 6Gy) was 7.9 percentage of total and the “Cell Cycle Distribution, sub G” value ([4]; HCT116, 5 μM, 18 h after 6Gy) was 3.7 percentage of total. For the same molecule, the “Cell Cycle Distribution, G1” value ([4]; HCT116, 50 μM, 18 h after 6Gy) was 32.8 percentage of total, the “Cell Cycle Distribution, G2 + M” value ([4]; HCT116, 50 μM, 18 h after 6Gy) was 57.3 percentage of total and the “Cell Cycle Distribution, S” value ([4]; HCT116, 50 μM, 18 h after 6Gy) was 6.3 percentage of total. The “Cell Cycle Distribution, sub G” value ([4]; HCT116, 50 μM, 18 h after 6Gy) was 3.3 percentage of total, the “Cell Cycle Distribution, G1” value ([4]; HCT116, 100 μM, 18 h after 6Gy) was 29.9 percentage of total and the “Cell Cycle Distribution, G2 + M” value ([4]; HCT116, 100 μM, 18 h after 6Gy) was 59.6 percentage of total. The “Cell Cycle Distribution, S” value ([4]; HCT116, 100 μM, 18 h after 6Gy) was 7.2 percentage of total, the “Cell Cycle Distribution, sub G” value ([4]; HCT116, 100 μM, 18 h after 6Gy) was 3.1 percentage of total and the “Cell Cycle Distribution, G1” value ([4]; HCT116, 250 μM, 18 h after 6Gy) was 23.9 percentage of total. The “Cell Cycle Distribution, G2 + M” value ([4]; HCT116, 250 μM, 18 h after 6Gy) was 65.4 percentage of total, the “Cell Cycle Distribution, S” value ([4]; HCT116, 250 μM, 18 h after 6Gy) was 4.3 percentage of total and the “Cell Cycle Distribution, sub G” value ([4]; HCT116, 250 μM, 18 h after 6Gy) was 6.2 percentage of total. The “Cell Cycle Distribution, G1” value ([4]; HCT116, 500 μM, 18 h after 6Gy) was 15.4 percentage of total, the “Cell Cycle Distribution, G2 + M” value ([4]; HCT116, 500 μM, 18 h after 6Gy) was 73.0 percentage of total and the “Cell Cycle Distribution, S” value ([4]; HCT116, 500 μM, 18 h after 6Gy) was 4.9 percentage of total. For the same molecule, the “Cell Cycle Distribution, sub G” value ([4]; HCT116, 500 μM, 18 h after 6Gy) was 6.4 percentage of total, the Checkpoint remark ([4]; HCT116, 500 μM, 18 h after 6Gy) was “G1 abrogation” and the “Checkpoint abrogation” value ([4]; HCT116, 6 Gy) was “abrogated radiation induced G1 arrest”. For the same molecule, the IC50 [5] was 185 ± 51 µM, the “Cell Cycle Distribution, G1” value ([6]; L1210, 50 μM, 18 h after 6Gy) was 19.0 percentage of total and the “Cell Cycle Distribution, G2 + M” value ([6]; L1210, 50 μM, 18 h after 6Gy) was 50.1 percentage of total. The “Cell Cycle Distribution, S” value ([6]; L1210, 50 μM, 18 h after 6Gy) was 27.8 percentage of total, the “Cell Cycle Distribution, sub G1” value ([6]; L1210, 50 μM, 18 h after 6Gy) was 4.0 percentage of total and the “Cell Cycle Distribution, G1” value ([6]; L1210, 100 μM, 18 h after 6Gy) was 18.4 percentage of total. For the same molecule, the “Cell Cycle Distribution, G2 + M” value ([6]; L1210, 100 μM, 18 h after 6Gy) was 55.8 percentage of total, the “Cell Cycle Distribution, S” value ([6]; L1210, 100 μM, 18 h after 6Gy) was 23.0 percentage of total and the “Cell Cycle Distribution, sub G1” value ([6]; L1210, 100 μM, 18 h after 6Gy) was 3.5 percentage of total. The “Cell Cycle Distribution, G1” value ([6]; L1210, 250 μM, 18 h after 6Gy) was 11.2 percentage of total, the “Cell Cycle Distribution, G2 + M” value ([6]; L1210, 250 μM, 18 h after 6Gy) was 71.9 percentage of total and the “Cell Cycle Distribution, S” value ([6]; L1210, 250 μM, 18 h after 6Gy) was 10.0 percentage of total. The “Cell Cycle Distribution, sub G1” value ([6]; L1210, 250 μM, 18 h after 6Gy) was 6.9 percentage of total, the “Cell Cycle Distribution, G1” value ([6]; L1210, 500 μM, 18 h after 6Gy) was 3.4 percentage of total and the “Cell Cycle Distribution, G2 + M” value ([6]; L1210, 500 μM, 18 h after 6Gy) was 88.4 percentage of total. The “Cell Cycle Distribution, S” value ([6]; L1210, 500 μM, 18 h after 6Gy) was 2.9 percentage of total, the “Cell Cycle Distribution, sub G1” value ([6]; L1210, 500 μM, 18 h after 6Gy) was 5.4 percentage of total and the Checkpoint remark ([6]; L1210, 500 μM, 18 h after 6Gy) was “G1 abrogation”. For the same molecule, the “Checkpoint abrogation” value ([6]; L1210, 6 Gy) was “abrogated radiation induced G1 arrest”.
